Reference: patent US20230295152A1 (SENDA BIOSCIENCES, INC., priority 2019, published 2023)
Values after ≈ are worked out from the molar mass of the structure shown. Read-outs that look alike come from different tables or passages of the source.

Key:
[1] = Solubility Determination Assay in PBS pH 1.6 and pH 7.4; format: physicochemical; details: PBS buffer, aqueous buffer, kinetic from dmso stock
Procedure: The stock solutions of test compounds and control compound progesterone were prepared in DMSO at the concentrations of 10 mM. 15 μL of stock solution (10 mM) of each sample was placed in order into their proper 96-well rack. 485 μL of PBS pH 1.6 and pH 7.4 were added into each vial of the cap-less Solubility Sample plate. The assay was performed in singlet. One stir stick was added to each vial and then the vial was sealed using a molded PTFE/Silicone plug. […] After completion of the 2 hours, plugs were removed and the stir sticks were removed using a big magnet. The samples from the Solubility Sample plate were transferred into the filter plate. Using the Vacuum Manifold, all the samples were filtered. An aliquot of 5 μL was taken from the filtrate followed by addition of 495 μL of a mixture of H2O and acetonitrile containing internal standard (1:1). A certain proportion of ultrapure water was used to dilute the diluent according to the peak shape. The dilution factor was changed according to the solubility values and the LC-MS signal response.
From the 10 mM DMSO STD plate, 6 μL was transferred into the remaining empty plate, and then 194 μL of DMSO were added to that plate to have a STD concentration of 300 μM. From the 300 μM DMSO STD plate, 5 μL were transferred into the remaining empty plate, and then 495 μL of a mixture of H2O and acetonitrile containing internal standard (1:1) were added to that plate to have a final STD concentration of 3 μM. A certain proportion of ultrapure water was used to dilute the diluent according to the peak shape. The concentrations of the standard samples were changed according to the LC-MS signal response.
The plate was placed into the well plate autosampler. The samples were evaluated by LC-MS/MS analysis.
All calculations were carried out using Microsoft Excel.
The filtrate was analyzed and quantified against a standard of known concentration using LC coupled with mass spectral peak identification and quantitation. Solubility values of the test compound and control compound were calculated as follows: […]
Any value of the compounds that was not within the specified limits was rejected and the experiment was repeated.
“+++” indicates a solubility value equal to or greater than 1 μM, “++” indicates a solubility value between 0.1 and 1 μM, and “+” indicates a solubility value less than 0.1 μM.

[2] = Hepatocyte Stability Assay, human; format: in vitro ADME; details: cryopreserved hepatocytes in suspension; human hepatocytes; read-out: Human hepatocyte clearance
Procedure: • Preparation of working solutions: 10 mM stock solutions of test compound and positive control were prepared in DMSO. In separate conical tubes, the 10 mM solution of test compound and the positive control were diluted to 100 μM by combining 198 μL of 50% acetonitrile/50% water and 2 μL of 10 mM stock.
Preparation of Hepatocytes: Incubation medium (William's E Medium supplemented with GlutaMAX) and hepatocyte thawing medium were placed in a 37° C. water bath and allowed warming for at least 15 minutes prior to use. A vial of cryopreserved hepatocytes was transferred from storage, ensuring that vials remained at cryogenic temperatures until thawing process ensued. Cells were thawed by placing the vial in a 37° C. water bath and gently shaking the vials for 2 minutes. After thawing was completed, vial was sprayed with 70% ethanol and transferred to a biosafety cabinet. Wide-bore pipette tip were used to transfer hepatocytes into 50 mL conical tube containing thawing medium. The 50 mL conical tube were placed into a centrifuge and spun at 100 g for 10 minutes. Upon completion of spin, thawing medium was aspirated and resuspended hepatocytes in enough incubation medium to yield ˜1.5×10^6 cells/mL. Using an AO/PI Staining, cells were counted and the viable cell density was determined. Cells with poor viability (<75% viability) were determined to be not acceptable for use. Cells were diluted with incubation medium to a working cell density of 0.5×10^6 viable cells/mL.
Procedure for Stability Determination: 198 μL of hepatocytes were pipetted into each wells of a 96-well non-coated plate. The plate was placed in the incubator to allow the hepatocytes to warm for 10 minutes. 2 μL of the 100 μM test compound or positive control solutions were pipetted into respective wells of the 96-well non-coated plate to start the reaction. The plate was returned to the incubator for the designed time points. Well contents was transferred in 25 μL aliquots at time points of 0, 15, 30, 60, 90 and 120 minutes. The aliquots were then mixed with 6 volumes (150 μL) of acetonitrile containing internal standard, IS (100 nM alprazolam, 200 nM caffeine and 100 nM tolbutamide) to terminate the reaction. The mixture was vortex for 5 minutes. Samples were centrifuged for 45 minutes at 3,220 g. An aliquot of 100 μL of the supernatant was diluted by 100 μL ultra-pure water, and the mixture was used for LC/MS/MS analysis. All incubations were performed in duplicate.
Data Analysis: All calculations were carried out using Microsoft Excel. Peak areas were determined from extracted ion chromatograms. In vitro half-life (t1/2) of parent compound was determined by regression analysis of the percent parent disappearance vs. time curve.
The in vitro half-life (in vitro t1/2) was determined from the slope value:
Conversion of the in vitro t1/2 (in min) into the in vitro intrinsic clearance (in vitro CLint, in μL/min/1×10^6 cells) was done using the following equation (mean of duplicate determinations):
V=incubation volume(0.2 mL);
N=number of hepatocytes per well(0.1×10^6 cells).
“+++” indicates a CLint value less than 20 mL/min/Kg, “++” indicates a CLint between 20 and 50 mL/min/Kg, and “+” indicates an CLint above 50 mL/min/Kg.

[3] = PBS pH 1.6, 25° C., read-out: Aq. Solubility at pH = 1.6
[4] = PBS pH 7.4, 25° C., read-out: Aq. Solubility at pH = 7.4

SMILES | solubility at 2 h [1, 3] [µM] | solubility at 2 h [1, 4] [µM] | CLint scaled at 1 μM [2] [L/h/kg]
O=c1c2cc(-c3ccc(C(F)(F)F)nc3)nc(-c3cccnc3)c2ncn1C[C@H](O)C(F)(F)F [Compound 57] | ≥ 1 | ≥ 1 | < 1.2
C[C@@H](CO)n1cnc2c(N3CCCCC3)nc(-c3ccc(Cl)cc3)cc2c1=O [Compound 177, (S)-6-(4-chlorophenyl)-3-(1-hydroxypropan-2-yl)-8-(piperidin-1-yl)pyrido[3,4-d]pyrimidin-4(3H)-one] | ≥ 1 | 0.1 to 1 (≈ 0.0399 to 0.399 µg/mL) | 1.2 to 3
Cn1cc(-c2nc(-c3ccc(C(F)(F)F)nc3)cc3c(=O)n(C[C@H](O)C(F)(F)F)cnc23)cn1 [Compound 111, (S)-8-(1-methyl-1H-pyrazol-4-yl)-3-(3,3,3-trifluoro-2-hydroxypropyl)-6-(6-(trifluoromethyl)pyridin-3-y1)pyrido[3,4-d]pyrimidin-4(3H)-one] | 0.1 to 1 (≈ 0.0484 to 0.484 µg/mL) | < 0.1 | < 1.2
C[C@@H](CO)n1cnc2c(-c3cccnc3)nc(-c3cnc(C(F)(F)F)s3)cc2c1=O [Compound 85] | ≥ 1 | ≥ 1 | < 1.2
C[C@@H](CO)n1cnc2c(-c3cnn(C)c3)nc(-c3cnc(C(F)(F)F)nc3)cc2c1=O [Compound 95] | ≥ 1 | ≥ 1 | < 1.2
O=c1c2cc(-c3ccc(C(F)(F)F)nc3)nc(-c3cccnc3)c2ncn1[C@H]1COC[C@@H]1O [Compound 117] | ≥ 1 | ≥ 1 | < 1.2
Cn1cc(-c2nc(-c3ccc(Cl)cc3)cc3c(=O)n([C@H]4COC[C@H]4O)cnc23)cn1 [Compound 92] | 0.1 to 1 (≈ 0.0424 to 0.424 µg/mL) | < 0.1 | < 1.2
CNC(=O)[C@H](C)n1cnc2c(-c3cccnc3)nc(-c3ccc(C(F)(F)F)nc3)cc2c1=O [Compound 156, (S)—N-methyl-2-(4-oxo-8-(pyridin-3-yl)-6-(6-(trifluoromethyl)pyridin-3-yl)pyrido[3,4-d]pyrimidin-3(4H)-yl)propanamide] | ≥ 1 | ≥ 1 | < 1.2
C[C@@H](CO)n1cnc2c(-c3cccnc3)nc(-c3ccc(C4CC4)nc3)cc2c1=O [Compound 74] | ≥ 1 | ≥ 1 | < 1.2
O=c1c2cc(-c3ccc(C(F)(F)F)cn3)nc(-c3cccnc3)c2ncn1[C@@H]1COC[C@H]1O [Compound 140, 3-((3R,4S)-4-hydroxytetrahydrofuran-3-yl)-8-(pyridin-3-yl)-6-(5-(trifluoromethyl)pyridin-2-yl)pyrido[3,4-d]pyrimidin-4(3H)-one] | ≥ 1 | ≥ 1 | < 1.2
C[C@@H](CO)n1cnc2c(-c3cnsc3)nc(-c3ccc(C(F)(F)F)nc3)cc2c1=O [Compound 55] | ≥ 1 | ≥ 1 | 1.2 to 3
C[C@H](n1cnc2c(-c3cnn(C)c3)nc(-c3ccc(Cl)cc3)cc2c1=O)C(C)(C)O [Compound 30] | – | 0.1 to 1 (≈ 0.0424 to 0.424 µg/mL) | < 1.2
C[C@@H](CO)n1cnc2c(-c3cnsc3)nc(-c3ccc(C(F)(F)F)cn3)cc2c1=O [Compound 102, (S)-3-(1-hydroxypropan-2-y1)-8-(isothiazol-4-yl)-6-(5-(trifluoromethyl)pyridin-2-yl)pyrido[3,4-d]pyrimidin-4(3H)-one] | 0.1 to 1 (≈ 0.0433 to 0.433 µg/mL) | 0.1 to 1 (≈ 0.0433 to 0.433 µg/mL) | < 1.2
Cn1cc(-c2nc(-c3ccc(C4CC4)nc3)cc3c(=O)n(CC(C)(C)O)cnc23)cn1 [Compound 82] | ≥ 1 | ≥ 1 | < 1.2
C[C@@H](CO)n1cnc2c(-c3cnsc3)nc(-c3ccc(Cl)cc3)cc2c1=O [Compound 58] | < 0.1 | < 0.1 | < 1.2
CC(C)(O)Cn1cnc2c(-c3cccnc3)nc(-c3ccc(Cl)cc3)cc2c1=O [Compound 18] | ≥ 1 | ≥ 1 | < 1.2
